For this assay, the target named is Pin1 (Homo sapiens, UniProt Q13526). Kind of assay: alpha-chymotrypsin protease-coupled PPIase assay. It counts as biochemical.
Chain of Pin1 (Q13526 whole entry): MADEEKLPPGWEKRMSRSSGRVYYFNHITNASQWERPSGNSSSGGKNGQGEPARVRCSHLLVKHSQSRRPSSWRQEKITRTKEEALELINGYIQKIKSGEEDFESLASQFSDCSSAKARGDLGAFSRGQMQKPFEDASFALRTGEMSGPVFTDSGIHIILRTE

A word on the IC50: it is the concentration at which inhibition is half-maximal. In turn, `CC(=O)NC(COP(=O)(O)O)C(=O)C1CCCCC1C(=O)NCCc1c[nH]c2ccccc12` (racemic) [rac-2] yielded an IC50 of 61 ± 8 µM.

`CC(=O)N[C@@H](COP(=O)(O)O)C(=O)[C@@H]1CCCC[C@H]1C(=O)NCCc1c[nH]c2ccccc12` [compound 1, 1] registered a half-inhibitory concentration (IC50) of 260 ± 30 µM.

The values above are taken from article PMC3446931, “Cyclohexyl Ketone Inhibitors of Pin1 Dock in a Trans-Diaxial Cyclohexane Conformation” (PLoS ONE, 2012).
